System: full-length JFH-1 replicon
Experiment: replicon model, intracellular HCV RNA by RT-qPCR
Assay type: cell-based, hepatitis C virus in Huh-7 cells
Conditions: peptides 20 µM, controls 1 µM, 48 hours

SMILES | intracellular HCV RNA levels in replicon cells
COc1ccc2c(O[C@@H]3C[C@H]4C(=O)N[C@]5(C(=O)O)C[C@H]5/C=C\CCCCC[C@H](NC(=O)OC5CCCC5)C(=O)N4C3)cc(-c3csc(NC(C)C)n3)nc2c1 [BILN2061] | efficiently reduced HCV RNA levels
C[C@@]1(O)[C@H](O)[C@@H](CO)O[C@H]1n1ccc(N)nc1=O [Peptide 2-CMC, 2’-C-methylcytidine] | efficiently reduced HCV RNA levels

Reference: article PMC3225806 (Chemistry & biology, 2011)
